Data taken from PubChem BioAssay AID2060884 (Molecular Pharmacology Branch, DTP, NCI, 2025).
Several values for one entry are separate records, joined by “and”; a condition that tells them apart may be missing. Equal entries are not always repeated. Values belong to the compound of their own block, whether it stands above or below them.

Tested on: NCI-H929 complex spheroids, viability % test/control
Experiment: Anticancer human tumor NCI-H929 cell line growth inhibition [RAS];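 also: compound exposure lasted seven days before viability was read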;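 as to viability, T/C: 100% = DMSO vehicle control viability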
Details: for viability, T/C: stronger effect = lower value
How it was run: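 Tumour cells grown as complex spheroids with HUVEC endothelial cells and mesenchymal stem cells, treated with RAS pathway inhibitor combinations. Each agent spans half-log steps from near clinical Cmax, or 10 microM where Cmax is unknown.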

[1] = curve of first compound, second compound 0.000949 µM
[2] = curve of first compound, second compound 0.003 µM
[3] = curve of first compound, second compound 0.00949 µM
[4] = curve of first compound, second compound 0.03 µM
[5] = curve of first compound, second compound 0.0949 µM
[6] = curve of first compound, second compound 0.3 µM
[7] = second compound 0.000949 µM, first compound 0.0316 µM
[8] = second compound 0.000949 µM, first compound 0.1 µM
[9] = second compound 0.000949 µM, first compound 0.316 µM
[10] = second compound 0.000949 µM, first compound 1 µM
[11] = second compound 0.000949 µM, first compound 3.16 µM
[12] = second compound 0.000949 µM, first compound 10 µM
[13] = second compound 0.003 µM, first compound 0.0316 µM
[14] = second compound 0.003 µM, first compound 0.1 µM
[15] = second compound 0.003 µM, first compound 0.316 µM
[16] = second compound 0.003 µM, first compound 1 µM
[17] = second compound 0.003 µM, first compound 3.16 µM
[18] = second compound 0.003 µM, first compound 10 µM
[19] = second compound 0.00949 µM, first compound 0.0316 µM
[20] = second compound 0.00949 µM, first compound 0.1 µM
[21] = second compound 0.00949 µM, first compound 0.316 µM
[22] = second compound 0.00949 µM, first compound 1 µM
[23] = second compound 0.00949 µM, first compound 3.16 µM
[24] = second compound 0.00949 µM, first compound 10 µM
[25] = second compound 0.03 µM, first compound 0.0316 µM
[26] = second compound 0.03 µM, first compound 0.1 µM
[27] = second compound 0.03 µM, first compound 0.316 µM
[28] = second compound 0.03 µM, first compound 1 µM
[29] = second compound 0.03 µM, first compound 3.16 µM
[30] = second compound 0.03 µM, first compound 10 µM
[31] = second compound 0.0949 µM, first compound 0.0316 µM
[32] = second compound 0.0949 µM, first compound 0.1 µM
[33] = second compound 0.0949 µM, first compound 0.316 µM
[34] = second compound 0.0949 µM, first compound 1 µM
[35] = second compound 0.0949 µM, first compound 3.16 µM
[36] = second compound 0.0949 µM, first compound 10 µM
[37] = second compound 0.3 µM, first compound 0.0316 µM
[38] = second compound 0.3 µM, first compound 0.1 µM
[39] = second compound 0.3 µM, first compound 0.316 µM
[40] = second compound 0.3 µM, first compound 1 µM
[41] = second compound 0.3 µM, first compound 3.16 µM
[42] = second compound 0.3 µM, first compound 10 µM

IC50 [1]: > 10000 nM
IC50 [2]: > 10000 nM
IC50 [3]: > 10000 nM
IC50 [4]: > 10000 nM
IC50 [5]: > 10000 nM
IC50 [6]: > 10000 nM
Structure (SMILES): C[C@@H](NC(=O)c1ncnc(N)c1Cl)c1ncc(C(=O)Nc2cc(C(F)(F)F)c(Cl)cn2)s1 + CCn1c(-c2cccnc2C(C)OC)c2c3cc(ccc31)N1CCOC(CC(NC(=O)C(C(C)C)N(C)C(=O)C3(F)CCN(C(=O)C#CC(C)(C)N(C)C)CC3)C(=O)N3CCCC(N3)C(=O)OCC(C)(C)C2)C1
viability, T/C [7]: 109%
viability, T/C [8]: 101%
viability, T/C [9]: 105%
viability, T/C [10]: 94.4%
viability, T/C [11]: 98.9%
viability, T/C [12]: 103%
viability, T/C [13]: 103%
viability, T/C [14]: 107%
viability, T/C [15]: 99.3%
viability, T/C [16]: 93.1%
viability, T/C [17]: 100%
viability, T/C [18]: 104%
viability, T/C [19]: 99.7%
viability, T/C [20]: 102%
viability, T/C [21]: 102%
viability, T/C [22]: 92.3%
viability, T/C [23]: 102%
viability, T/C [24]: 104%
viability, T/C [25]: 98.8%
viability, T/C [26]: 105%
viability, T/C [27]: 99.1%
viability, T/C [28]: 92.6%
viability, T/C [29]: 101%
viability, T/C [30]: 104%
viability, T/C [31]: 104%
viability, T/C [32]: 101%
viability, T/C [33]: 94.8%
viability, T/C [34]: 92.3%
viability, T/C [35]: 96.2%
viability, T/C [36]: 105%
viability, T/C [37]: 106%
viability, T/C [38]: 105%
viability, T/C [39]: 102%
viability, T/C [40]: 87.4%
viability, T/C [41]: 92.5%
viability, T/C [42]: 107%

IC50 (curve of compound): > 10000 nM
Structure (SMILES): C[C@@H](NC(=O)c1ncnc(N)c1Cl)c1ncc(C(=O)Nc2cc(C(F)(F)F)c(Cl)cn2)s1
viability, T/C (compound 0.0316 µM): 106% [middle of 4 runs]
viability, T/C (compound 0.1 µM): 103% (2×) and 98.6% and 92.7%
viability, T/C (compound 0.316 µM): 98.6% [middle of 4 runs]
viability, T/C (compound 1 µM): 95.3% [middle of 4 runs]
viability, T/C (compound 3.16 µM): 97.7% [middle of 4 runs]
viability, T/C (compound 10 µM): 108% [middle of 4 runs]

IC50 [1]: 188 nM
IC50 [2]: 191 nM
IC50 [3]: 200 nM
IC50 [4]: 57.5 nM
IC50 [5]: < 31.6 nM
IC50 [6]: < 31.6 nM
Structure (SMILES): CC1(O)CCCC1n1c(=O)c(C(F)F)cc2cnc(NC3CCN(S(C)(=O)=O)CC3)nc21 (stereo not given) + CCn1c(-c2cc(N3CCN(C)CC3)cnc2C(C)OC)c2c3cc(ccc31)-c1csc(n1)CC(NC(=O)C1CC1C)C(=O)N1CCCC(N1)C(=O)OCC(C)(C)C2
viability, T/C [7]: 109%
viability, T/C [8]: 106%
viability, T/C [9]: 3.79%
viability, T/C [10]: 4.11%
viability, T/C [11]: 3.8%
viability, T/C [12]: 0.15%
viability, T/C [13]: 103%
viability, T/C [14]: 115%
viability, T/C [15]: 2.16%
viability, T/C [16]: 7.09%
viability, T/C [17]: 7.23%
viability, T/C [18]: 0.06%
viability, T/C [19]: 113%
viability, T/C [20]: 117%
viability, T/C [21]: 4.34%
viability, T/C [22]: 14.1%
viability, T/C [23]: 8.7%
viability, T/C [24]: 0.05%
viability, T/C [25]: 72.2%
viability, T/C [26]: 29.5%
viability, T/C [27]: 4.66%
viability, T/C [28]: 9.27%
viability, T/C [29]: 2.06%
viability, T/C [30]: 0.13%
viability, T/C [31]: 6.97%
viability, T/C [32]: 4.65%
viability, T/C [33]: 3.2%
viability, T/C [34]: 2.92%
viability, T/C [35]: 0.85%
viability, T/C [36]: 0.09%
viability, T/C [37]: 3.5%
viability, T/C [38]: 2.32%
viability, T/C [39]: 2.57%
viability, T/C [40]: 1.68%
viability, T/C [41]: 0.72%
viability, T/C [42]: 8.23%

IC50 (curve of first compound, second compound 0.00316 µM): 184 nM
IC50 (curve of first compound, second compound 0.01 µM): 190 nM
IC50 (curve of first compound, second compound 0.0316 µM): 189 nM
IC50 (curve of first compound, second compound 0.1 µM): 192 nM
IC50 (curve of first compound, second compound 0.316 µM): 184 nM
IC50 (curve of first compound, second compound 1 µM): 182 nM
Structure (SMILES): CC1(O)CCCC1n1c(=O)c(C(F)F)cc2cnc(NC3CCN(S(C)(=O)=O)CC3)nc21 (stereo not given) + C=CC(=O)N1CCN(c2nc(OCC3CCCN3C)nc3c(F)c(-c4nc(N)cc(C)c4C(F)(F)F)c(Cl)cc23)C(C)C1
viability, T/C (second compound 0.00316 µM, first compound 0.0316 µM): 115%
viability, T/C (second compound 0.00316 µM, first compound 0.1 µM): 101%
viability, T/C (second compound 0.00316 µM, first compound 0.316 µM): 4.56%
viability, T/C (second compound 0.00316 µM, first compound 1 µM): 8.72%
viability, T/C (second compound 0.00316 µM, first compound 3.16 µM): 2.59%
viability, T/C (second compound 0.00316 µM, first compound 10 µM): 0.82%
viability, T/C (second compound 0.01 µM, first compound 0.0316 µM): 112%
viability, T/C (second compound 0.01 µM, first compound 0.1 µM): 108%
viability, T/C (second compound 0.01 µM, first compound 0.316 µM): 3.89%
viability, T/C (second compound 0.01 µM, first compound 1 µM): 8.77%
viability, T/C (second compound 0.01 µM, first compound 3.16 µM): 3.05%
viability, T/C (second compound 0.01 µM, first compound 10 µM): 0.57%
viability, T/C (second compound 0.0316 µM, first compound 0.0316 µM): 107%
viability, T/C (second compound 0.0316 µM, first compound 0.1 µM): 107%
viability, T/C (second compound 0.0316 µM, first compound 0.316 µM): 3.77%
viability, T/C (second compound 0.0316 µM, first compound 1 µM): 9.13%
viability, T/C (second compound 0.0316 µM, first compound 3.16 µM): 2.62%
viability, T/C (second compound 0.0316 µM, first compound 10 µM): 0.19%
viability, T/C (second compound 0.1 µM, first compound 0.0316 µM): 109%
viability, T/C (second compound 0.1 µM, first compound 0.1 µM): 109%
viability, T/C (second compound 0.1 µM, first compound 0.316 µM): 4.89%
viability, T/C (second compound 0.1 µM, first compound 1 µM): 8.17%
viability, T/C (second compound 0.1 µM, first compound 3.16 µM): 2.43%
viability, T/C (second compound 0.1 µM, first compound 10 µM): 0.18%
viability, T/C (second compound 0.316 µM, first compound 0.0316 µM): 113%
viability, T/C (second compound 0.316 µM, first compound 0.1 µM): 101%
viability, T/C (second compound 0.316 µM, first compound 0.316 µM): 4.58%
viability, T/C (second compound 0.316 µM, first compound 1 µM): 9.4%
viability, T/C (second compound 0.316 µM, first compound 3.16 µM): 2.18%
viability, T/C (second compound 0.316 µM, first compound 10 µM): 0.46%
viability, T/C (second compound 1 µM, first compound 0.0316 µM): 121%
viability, T/C (second compound 1 µM, first compound 0.1 µM): 99.8%
viability, T/C (second compound 1 µM, first compound 0.316 µM): 4.25%
viability, T/C (second compound 1 µM, first compound 1 µM): 7.11%
viability, T/C (second compound 1 µM, first compound 3.16 µM): 2.09%
viability, T/C (second compound 1 µM, first compound 10 µM): 0.13%

IC50 (curve of compound): 33.1 nM and 62.7 nM and 55.5 nM
Structure (SMILES): CC(C)n1nc(-c2ccc3oc(N)nc3c2)c2c(N)ncnc21
viability, T/C (compound 0.000316 µM): 105% [middle of 4 runs]
viability, T/C (compound 0.001 µM): 104% (2×) and 99.9% and 103%
viability, T/C (compound 0.00316 µM): 110% [middle of 4 runs]
viability, T/C (compound 0.01 µM): 99% and 112% (2×) and 109%
viability, T/C (compound 0.0316 µM): 52.1% and 119% (2×) and 94.3%
viability, T/C (compound 0.1 µM): 9.59% [middle of 4 runs]
